PubChem BioAssay (NCI)
Values joined by “and” are separate entries in the source; they are usually repeats but may differ in a detail not shown here. Equal values may be shown once.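 1) Cells in 96-well plates. 2) Compound, 48 h, 5 concentrations. 3) Linear interpolation between surrounding doses. 4) Unreached endpoint = highest concentration. Here, GI50 denotes the concentration required for 50% inhibition of growth. At the TGI there is no net growth.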

Assays:
Experiment in all cases: DTP human tumour cell line panel, 48 h
ACHN renal = test system: ACHN renal
HOP-92 NSCLC = test system: HOP-92 NSCLC
RPMI-8226 leukemia = test system: RPMI-8226 leukemia
RXF 393 renal = test system: RXF 393 renal
SK-MEL-2 melanoma = test system: SK-MEL-2 melanoma
SK-MEL-5 melanoma = test system: SK-MEL-5 melanoma
SK-OV-3 ovarian = test system: SK-OV-3 ovarian
U251 CNS = test system: U251 CNS
UACC-257 melanoma = test system: UACC-257 melanoma
UACC-62 melanoma = test system: UACC-62 melanoma

SMILES | GI50 (ACHN renal) [µM] | TGI (ACHN renal) [µM] | GI50 (HOP-92 NSCLC) [µM] | TGI (HOP-92 NSCLC) | GI50 (RPMI-8226 leukemia) | TGI (RPMI-8226 leukemia) | GI50 (RXF 393 renal) [µM] | TGI (RXF 393 renal) | GI50 (SK-MEL-2 melanoma) [µM] | TGI (SK-MEL-2 melanoma) | GI50 (SK-MEL-5 melanoma) [µM] | TGI (SK-MEL-5 melanoma) | GI50 (SK-OV-3 ovarian) | TGI (SK-OV-3 ovarian) [µM] | GI50 (U251 CNS) | TGI (U251 CNS) | GI50 (UACC-257 melanoma) [µM] | TGI (UACC-257 melanoma) [µM] | GI50 (UACC-62 melanoma) [µM] | TGI (UACC-62 melanoma)
COc1cc([C@H](C)c2ccc3ccccc3c2)cc(OC)c1OC | 0.857 | > 100 | 0.908 | 53 µM | 0.325 µM | 10.9 µM | 0.22 | > 100 µM | 0.527 | 65.4 µM | 0.26 | 11.1 µM | 0.594 µM | 61.6 | 0.333 µM | 21.1 µM | 1.97 | 44 | 0.499 | > 100 µM
Oc1ccc(N=Nc2ccc(Cl)cc2)cc1 | – | 27.7 | – | 29.2 µM | – | 80.4 µM | – | 30.3 µM | – | 28.4 µM | – | 24.1 µM | – | 47.3 | – | 29.7 µM | – | 31.5 | – | 36.4 µM
COC(=O)CCC/C=C\C[C@H]1C=CC(=O)/C1=C/C[C@@H](O)CCc1cccc(C(F)(F)F)c1 | 1.83 | 3.54 | 3.1 | 7.94 µM | 2.85 µM | 14 µM | 2.08 | 3.79 µM | 3.19 | 11.5 µM | 1.73 | 3.2 µM | 4.94 µM | 16.5 | 2.06 µM | 4.96 µM | 2.48 | 7.49 | 2.16 | 5.48 µM
CCC(=O)c1cn(C)c(=O)c2ccccc12 | – | > 100 | – | > 100 µM | – | > 100 µM | – | > 100 µM | – | > 100 µM | – | > 100 µM | – | > 100 | – | > 100 µM | – | > 100 | – | > 100 µM
O=c1ccn(C2OC(CO)C(O)C2O)c(=O)[nH]1 (configuration not stated) | > 1000 | > 1000 | > 1000 | > 1000 µM | > 1000 µM | > 1000 µM | > 1000 | > 1000 µM | > 1000 | > 1000 µM | > 1000 | > 1000 µM | > 1000 µM | > 1000 | > 1000 µM | > 1000 µM | – | > 1000 | > 1000 | > 1000 µM
COc1cc(C2c3cc4c(cc3[C@@H](Nc3ccc(C(=O)O)cc3)C3COC(=O)[C@H]23)OCO4)cc(OC)c1O (some centres not stated) | – | > 100 | – | 18.5 µM and > 17.5 µM | 5.7 µM and 2.71 µM | 30.2 µM and 6.54 µM | – | 37 µM and > 17.5 µM | – | 75.3 µM and > 17.5 µM | – | 38.3 µM and > 17.5 µM | 34.4 µM and 15.3 µM | > 100 | 12.6 µM and 6.13 µM | 53 µM and > 17.5 µM | – | > 100 | – | 28.2 µM and > 17.5 µM
CN(C)CCNc1nc2ccccc2c2c1c1c(n2Cc2ccccc2)-c2ccccc2C1=O | 6.43 | 20.7 | 6.19 | 21.2 µM | 2.78 µM | 17.7 µM | 11.5 | 37.6 µM | 10.9 | 28.9 µM | 15.8 | 30.9 µM | 20.3 µM | 45.1 | 14.4 µM | 29.2 µM | 19.9 | 42.6 | 18.3 | 34.3 µM
CCCCCCC/C=C/[C@H]1O[C@]23C(=O)C[C@@]4(C[C@@H](OC5OC(CO)C(O)C(O)C5O)C[C@@H]4[C@H]2C=C1C)OC3=O (some centres not stated) | 4.31 | 8.65 | 3.77 | 11.6 µM | 1.28 µM | > 33.3 µM | 4.41 | 9.15 µM | 5.33 | 15.1 µM | 4.88 | 9.37 µM | 7.13 µM | 21.6 | 3.55 µM | 7.63 µM | 5.21 | 12.4 | 4.47 | 10.9 µM
COc1ccc(-c2c(C3=NCCN3)nnn2-c2ccccc2)cc1 | – | > 100 | – | > 100 µM | – | > 100 µM | – | > 100 µM | – | > 100 µM | – | > 100 µM | – | > 100 | – | > 100 µM | – | > 100 | – | > 100 µM
